Data published in patent US6686358B2, “Bicyclic amino-pyrazinone compounds” (Les Laboratoires Servier, priority 2000, dated 2004).
Where a name gives a salt, the structure may show the parent alone.

Tests used:
Assay type in all cases: biochemical
human thrombin = target: T1, human thrombin (Homo sapiens, UniProt P00734); assay: Inhibition of thrombin (fibrin formation from fibrinogen, 405 nm); details: human thrombin 0.7 nM, fibrinogen substrate, 20° C., compared with control without product; read-out: concentration inhibiting the enzymatic activity of thrombin by 50% (IC50)
T1 construct: purchased Sigma
Procedure: For in vitro evaluation of the inhibitory activity of the products of the invention on human thrombin (Sigma, specific activity 3230 NIH units/mg), purified human fibrinogen ([…], Stago) (Fg) was added to a given amount of thrombin (0.7 nM) that had previously been incubated with or without the inhibitor to be tested (20° C., 10 minutes).
Inhibitors, enzymes and substrates are diluted in the same buffer (0.01 mM phosphate buffer, pH 7.4, containing 0.12M sodium chloride and 0.05% bovine serum albumin) and then distributed in a polystyrene microtitre plate in a volume of 50 μl.
The fibrin formed by the thrombin or by the paranitroanilide released by the action of the serine protease is measured spectrophotometrically at 405 nm after from 15 to 30 minutes' reaction at 20° C.

[1] = tested on: human plasma samples (activated cephalin time); assay: Anti-coagulant activity, activated cephalin time (ACT) in human plasma; details: concentration that doubles the activated cephalin time, 37° C.
Procedure: (§1) In order to evaluate the anti-coagulant activity of the compounds of the invention, the thrombin time (TT) and the activated cephalin time (ACT) were determined in human plasma samples. An ST4 coagulometer was used. A plasma deficient in platelets is lyophilised and taken up in distilled water. The TT is obtained using the reagent Thrombine Prest and the ACT is obtained using the reagent Céphaline PTT Automate. Inhibitor or solvent (10 μl) is added to the plasma (90 μl), which is then incubated for 2 minutes at 37° C. 100 μl of Thrombine Prest (TT) or of Céphaline PTT Automate (ACT) are added and at the same time the timer is started.
(§2) Under those conditions, the TT is of the order of 18 seconds and the ACT of the order of 12 seconds. The activity of an antagonist is evaluated by its capacity to prolong the TT and the ACT relative to the control. The effect of the inhibitors is expressed by the concentration in μM that doubles the coagulation time (Ctt2).

[2] = tested on: human plasma samples (thrombin time); assay: Anti-coagulant activity, thrombin time (TT) in human plasma; details: concentration that doubles the thrombin time, 37° C.
Procedure: as §1, §2

Question: `N=C(N)NOCCNC(=O)[C@@H]1CCc2cnc(NCC(c3ccccc3)c3ccccc3)c(=O)n21` [Example 3, (6S)-N-[2-({[amino(imino)methyl]amino}oxy)ethyl]-3-[(2,2-diphenyl-ethyl)amino]-4-oxo4,6,7,8-tetrahydropyrrolo[1,2-a]pyrazine-6-carboxamide dihydrochloride] was tested. Which IC50 (human thrombin) did it give?
Answer: 4 nM

Question: How did the IC50 (human thrombin) turn out when `NC(=NO)c1ccc(CNC(=O)[C@@H]2CCc3cnc(NCC(c4ccccc4)c4ccccc4)c(=O)n32)cc1` [Example 1, (6S)-N-{4-[amino(hydroxyimino)methyl]benzyl}-3-[(2,2-diphenyl-ethyl)amino]-4-oxo4,6,7,8-tetrahydropyrrolo[1,2-a]pyrazine-6-carboxamide] was run?
Answer: 141 nM

Question: With `O=C(NCc1ccccc1OCc1ccccn1)[C@@H]1CCc2cnc(NCCc3ccccn3)c(=O)n21` [Example 10, (6S)-4-oxo-3-{[2-(2-pyridyl)ethyl]amino}-N-[2-(2-pyridylmethoxy)-benzyl]-4,6,7,8-tetrahydropyrrolo[1,2-a]pyrazine-6-carboxamide] as the compound, how does the IC50 (human thrombin) read?
Answer: 136 nM

Question: `Nc1noc2cc(CNC(=O)[C@@H]3CCc4cnc(NCCc5ccccn5)c(=O)n43)ccc12` [Example 17] was tested. Which IC50 (human thrombin) did it give?
Answer: 140 nM

Question: How did the “ACT Ctt2” value [1] turn out when `O=C(NCc1ccccc1OCC1=NCCN1)[C@@H]1CCc2cnc(NCCc3ccccn3)c(=O)n21` [Example 15, (6S)-N-[2-(4,5-dihydro-1H-imidazol-2-ylmethoxy)benzyl]4-oxo-3-{[2-(2-pyridyl)ethyl]amino}-4,6,7,8-tetrahydropyrrolo[1,2-a]-pyrazine-6-carboxamide] was run?
Answer: 1.91 µM

Question: What about the IC50 (human thrombin) of the same compound?
Answer: 12 nM

Question: What about the “TT Ctt2” value [2] of the same compound?
Answer: 0.19 µM

Question: How did the “ACT Ctt2” value [1] turn out when `O=C(NCc1ccc2cc[nH]c2c1)[C@@H]1CCc2cnc(NCCc3ccccn3)c(=O)n21` [Example 18, (6S)-N-[1H-indol-6-ylmethyl)-4-oxo-3-{[2-(2-pyridyl)ethyl]amino}-4,6,7,8-tetrahydropyrrolo[1,2-a]pyrazine-6-carboxamide] was run?
Answer: 3.07 µM

Question: What about the IC50 (human thrombin) of the same compound?
Answer: 22 nM

Question: What about the “TT Ctt2” value [2] of the same compound?
Answer: 0.28 µM

Question: `NC(=NO)c1ccc(CNC(=O)[C@@H]2CCc3cnc(NCCc4ccccn4)c(=O)n32)cc1` [Example 2, (6S)-N-{4-[amino(hydroxyimino)methyl]benzyl}-4-oxo-3-{(2-(2-pyridyl)ethyl]amino}-4,6,7,8-tetrahydropyrrolo[1,2-a]pyrazine-6-carboxamide] was tested. Which “ACT Ctt2” value [1] did it give?
Answer: 20 µM

Question: What about the IC50 (human thrombin) of the same compound?
Answer: 310 nM

Question: What about the “TT Ctt2” value [2] of the same compound?
Answer: 3.6 µM
